The target of this assay is purified human recombinant ATM (ataxia telangiectasia mutated), full length (Homo sapiens (Human), UniProt Q13315). Kind of assay: ATM kinase assay - determination of ATM inhibition (IC50 ATM), TR-FRET. Type of assay: biochemical. Conditions: 10 μM ATP, substrate p53. On the procedure:
ATM kinase assay—determination of ATM inhibition (IC50 ATM):
The IC50 value was determined with the aid of a biochemical ATM kinase assay. The assay consists of two steps: the enzymatic reaction and the detection step. Firstly, ATM (ataxia telangiectasia mutated) protein and the test substance are incubated at different concentrations with addition of substrate protein p53 and ATP. ATM mediates the phosphorylation of p53 at several positions, including at amino acid S15. The amount of phosphorylated p53 is determined with the aid of specific antibodies and the TR-FRET technique. The enzymatic ATM assay is carried out as TR-FRET (HTRF™, Cisbio Bioassays) based 384-well assay. In the first step, purified human recombinant ATM (human ATM, full length, GenBank ID NM_000051, expressed in a mammal cell line) is incubated in assay buffer for 15 minutes with the ATM inhibitor in various concentrations and without test substance as negative or neutral control. The assay buffer comprises 25 mM HEPES pH 8.0, 10 mM Mg(CH3COO)2, 1 mM MnCl2, 0,1% BSA and 0,01% Brij® 35, 5 mM dithiothreitol (DTT). […] In the second step, purified human recombinant cmyc-labelled p53 (human p53, full length, GenBank ID BC003596, expressed in Sf21 insect cells) and ATP are added, and the reaction mixture is incubated at 22° C. for 30-35 minutes. The pharmacologically relevant assay volume is 5 μl. […] The enzymatic reaction is stopped by addition of EDTA. […] After incubation, usually for 2 hours (between 1.5 and 15h), for signal development, the plates are analysed in a plate reader (EnVision, PerkinElmer) using TRF mode (and with laser excitation). […] The measurement data were processed by means of Genedata Screener software.
(Time-resolved FRET reads energy transfer from a long-lived donor to a nearby acceptor.)
purified human recombinant ATM (ataxia telangiectasia mutated), full length, sequence (Q13315 whole entry, change not shown): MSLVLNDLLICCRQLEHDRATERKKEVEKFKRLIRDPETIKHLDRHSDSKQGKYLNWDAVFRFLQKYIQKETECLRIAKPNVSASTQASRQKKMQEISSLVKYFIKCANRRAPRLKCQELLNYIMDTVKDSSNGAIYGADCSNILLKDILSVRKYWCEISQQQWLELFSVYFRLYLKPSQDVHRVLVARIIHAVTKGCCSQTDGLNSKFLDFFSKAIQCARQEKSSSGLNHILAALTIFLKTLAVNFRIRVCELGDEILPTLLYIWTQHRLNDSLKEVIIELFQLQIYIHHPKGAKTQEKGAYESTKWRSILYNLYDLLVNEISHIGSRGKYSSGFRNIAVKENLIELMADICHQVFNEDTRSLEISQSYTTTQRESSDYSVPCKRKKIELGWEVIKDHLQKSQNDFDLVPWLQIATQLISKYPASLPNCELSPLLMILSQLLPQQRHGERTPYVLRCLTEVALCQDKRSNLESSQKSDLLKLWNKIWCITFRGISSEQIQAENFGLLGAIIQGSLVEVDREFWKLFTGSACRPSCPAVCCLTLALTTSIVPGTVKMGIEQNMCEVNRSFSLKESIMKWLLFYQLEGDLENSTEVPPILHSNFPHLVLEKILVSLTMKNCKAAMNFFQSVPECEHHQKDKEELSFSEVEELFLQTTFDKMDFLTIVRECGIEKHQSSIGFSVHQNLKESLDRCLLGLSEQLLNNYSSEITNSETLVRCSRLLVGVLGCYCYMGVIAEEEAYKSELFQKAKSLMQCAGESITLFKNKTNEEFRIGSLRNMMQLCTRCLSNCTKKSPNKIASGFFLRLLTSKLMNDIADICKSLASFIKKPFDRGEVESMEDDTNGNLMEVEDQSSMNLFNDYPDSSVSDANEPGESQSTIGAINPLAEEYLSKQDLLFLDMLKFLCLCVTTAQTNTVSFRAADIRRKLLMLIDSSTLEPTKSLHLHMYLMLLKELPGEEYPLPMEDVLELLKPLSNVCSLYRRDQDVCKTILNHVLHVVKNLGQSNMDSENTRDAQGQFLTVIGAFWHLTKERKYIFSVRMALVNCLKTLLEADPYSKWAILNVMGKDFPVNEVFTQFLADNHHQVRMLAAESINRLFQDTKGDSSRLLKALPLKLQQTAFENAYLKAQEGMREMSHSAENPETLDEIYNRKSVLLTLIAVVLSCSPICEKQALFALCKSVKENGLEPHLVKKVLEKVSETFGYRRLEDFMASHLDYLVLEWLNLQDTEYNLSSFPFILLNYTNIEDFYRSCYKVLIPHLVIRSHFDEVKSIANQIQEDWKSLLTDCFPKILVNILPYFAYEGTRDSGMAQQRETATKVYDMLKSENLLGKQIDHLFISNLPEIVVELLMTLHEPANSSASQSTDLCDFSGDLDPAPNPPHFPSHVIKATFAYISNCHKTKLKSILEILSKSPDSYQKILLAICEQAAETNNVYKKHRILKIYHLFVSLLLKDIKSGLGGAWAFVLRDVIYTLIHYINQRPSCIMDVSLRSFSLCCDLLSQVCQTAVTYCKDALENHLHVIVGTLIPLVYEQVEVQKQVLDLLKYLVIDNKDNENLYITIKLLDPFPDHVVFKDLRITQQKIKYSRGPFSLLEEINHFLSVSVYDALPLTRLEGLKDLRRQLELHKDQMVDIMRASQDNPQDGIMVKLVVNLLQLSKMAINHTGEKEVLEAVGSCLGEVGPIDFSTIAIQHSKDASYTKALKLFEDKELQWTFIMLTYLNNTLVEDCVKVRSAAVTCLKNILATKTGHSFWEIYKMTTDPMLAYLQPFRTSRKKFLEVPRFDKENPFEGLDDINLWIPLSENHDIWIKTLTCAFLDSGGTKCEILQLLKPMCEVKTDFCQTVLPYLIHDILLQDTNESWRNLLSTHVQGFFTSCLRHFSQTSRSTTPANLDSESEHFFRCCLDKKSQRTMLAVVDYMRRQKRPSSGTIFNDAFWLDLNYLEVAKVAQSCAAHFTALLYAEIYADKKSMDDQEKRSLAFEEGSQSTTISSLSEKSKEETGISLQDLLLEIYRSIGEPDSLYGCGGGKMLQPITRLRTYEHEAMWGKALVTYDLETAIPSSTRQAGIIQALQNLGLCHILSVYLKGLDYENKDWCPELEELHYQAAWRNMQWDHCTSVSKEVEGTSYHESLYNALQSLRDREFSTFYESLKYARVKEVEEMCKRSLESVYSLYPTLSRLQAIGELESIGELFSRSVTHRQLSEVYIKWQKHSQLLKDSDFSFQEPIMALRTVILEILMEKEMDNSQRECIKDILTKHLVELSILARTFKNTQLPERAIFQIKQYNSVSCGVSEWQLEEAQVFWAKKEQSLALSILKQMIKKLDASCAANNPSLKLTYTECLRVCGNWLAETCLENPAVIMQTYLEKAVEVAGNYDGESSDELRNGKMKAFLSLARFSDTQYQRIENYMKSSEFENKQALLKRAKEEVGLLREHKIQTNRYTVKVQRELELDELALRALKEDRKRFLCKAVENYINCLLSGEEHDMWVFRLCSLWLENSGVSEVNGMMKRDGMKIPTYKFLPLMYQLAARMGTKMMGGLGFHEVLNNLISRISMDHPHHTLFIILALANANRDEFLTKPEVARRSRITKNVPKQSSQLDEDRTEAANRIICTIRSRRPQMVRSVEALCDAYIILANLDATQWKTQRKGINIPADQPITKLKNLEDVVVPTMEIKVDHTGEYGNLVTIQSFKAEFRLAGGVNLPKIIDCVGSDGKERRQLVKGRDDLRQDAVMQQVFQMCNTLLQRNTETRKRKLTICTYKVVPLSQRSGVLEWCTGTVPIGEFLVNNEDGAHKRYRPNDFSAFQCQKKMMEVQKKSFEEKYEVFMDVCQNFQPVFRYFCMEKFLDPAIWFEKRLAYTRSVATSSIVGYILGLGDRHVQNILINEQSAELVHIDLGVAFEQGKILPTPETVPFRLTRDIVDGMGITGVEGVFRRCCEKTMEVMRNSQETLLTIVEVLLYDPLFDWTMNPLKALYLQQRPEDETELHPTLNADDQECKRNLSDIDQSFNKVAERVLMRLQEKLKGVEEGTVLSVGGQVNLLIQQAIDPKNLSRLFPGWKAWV
In the case of `COc1cc2ncc3c(c2cc1-c1cn(C)nn1)n(-c1cn(C)nc1C)c(=O)n3C` [Compound Example 42, 1-(1,3-Dimethyl-1H-pyrazol-4-yl)-7-methoxy-3-methyl-8-(1-methyl-1H-1,2,3-triazol-4-yl)-1,3-dihydroimidazo-[4,5-c]quinolin-2-one], the half-maximal inhibitory concentration (IC50) (usually the point on the concentration scale where inhibition reaches its midpoint) is less than 10 nM.

With `COc1cc2ncc3c(c2cc1-c1cnn(C)c1)n(-c1ccc(C#N)cn1)c(=O)n3C` [Compound Example 48, 6-[7-Methoxy-3-methyl-8-(1-methyl-1H-pyrazol-4-yl)-2-oxo-2,3-dihydroimidazo-[4,5-c]quinolin-1-yl]-nicotinonitrile], the IC50 is less than 10 nM.

Regarding `COc1cc2ncc3c(c2cc1-c1cnn(C)c1)n(-c1ccc(F)cn1)c(=O)n3C` [Compound Example 50, 1-(5-Fluoropyridin-2-yl)-7-methoxy-3-methyl-8-(1-methyl-1H-pyrazol-4-yl)-1,3-dihydroimidazo[4,5-c]-quinolin-2-one], the IC50 was less than 10 nM.

For `COc1cc2ncc3c(c2cc1-c1cnn(C)c1)n(-c1ncccn1)c(=O)n3C` [Compound Example 52, 7-Methoxy-3-methyl-8-(1-methyl-1H-pyrazol-4-yl)-1-pyrimidin-2-yl-1,3-dihydro-imidazo[4,5-c]quinolin-2-one], the IC50 was less than 10 nM.

Take `COc1cc2ncc3c(c2cc1-c1cnn(C)c1)n(-c1ccccn1)c(=O)n3C` [Compound Example 56, 7-Methoxy-3-methyl-8-(1-methyl-1H-pyrazol-4-yl)-1-pyridin-2-yl-1,3-dihydro-imidazo[4,5-c]quinolin-2-one]: the IC50 was less than 10 nM.

Consider `COc1cc2ncc3c(c2cc1-c1cn(C)nn1)n(-c1c(C)cncc1F)c(=O)n3C` [compound 63, 1-(3-Fluoro-5-methylpyridin-4-yl)-7-methoxy-3-methyl-8-(1-methyl-1H-1,2,3-triazol-4-yl)-1,3-dihydroimidazo-[4,5-c] quinolin-2-one], for which the IC50 was less than 10 nM.

In the case of `COc1cc2ncc3c(c2cc1-c1cn(C)nn1)n(-c1ccncc1F)c(=O)n3C` [compound 64, 1-(3-Fluoropyridin-4-yl)-7-methoxy-3-methyl-8-(1-methyl-1H-1,2,3-triazol-4-yl)-1,3-dihydroimidazo-[4,5-c] quinolin-2-one], the IC50 was less than 10 nM.

Take `COc1cc2ncc3c(c2cc1-c1cc(N)n[nH]1)n(-c1ncccc1F)c(=O)n3C` [compound 65, 8-(3-Amino-1H-pyrazol-5-yl)-1-(3-fluoro-2-pyridyl)-7-methoxy-3-methyl-imidazo-[4,5-c]quinolin-2-one]: the half-inhibitory concentration (IC50) was less than 1 nM.

On to `COc1cc2ncc3c(c2cc1-c1cnn(C)c1)n(-c1ccc2ccccc2n1)c(=O)n3C` [compound 68, 7-Methoxy-3-methyl-8-(1-methyl-1H-pyrazol-4-yl)-1-quinolin-2-yl-1,3-dihydro-imidazo[4,5-c]quinolin-2-one], for which the IC50 is less than 10 nM.

Regarding `COc1cc2ncc3c(c2cc1-c1cnn(C)c1)n(-c1ccc2cc[nH]c2n1)c(=O)n3C` [compound 69, 7-Methoxy-3-methyl-8-(1-methyl-1H-pyrazol-4-yl)-1-(1H-pyrrolo[2,3-b]pyridin-6-yl)1,3-dihydroimidazo-[4,5-c]quinolin-2-one], the IC50 is less than 1 nM.

For the molecule `COc1cc2ncc3c(c2cc1-c1cnn(C)n1)n(-c1ncc(F)cc1F)c(=O)n3C` [compound 101, 1-(3,5-Difluoropyridin-2-yl)-7-methoxy-3-methyl-8-(2-methyl-2H-1,2,3-triazol-4-yl)-1,3-dihydroimidazo-[4,5-c] quinolin-2-one], the IC50 is less than 50 nM.

`COc1cc2ncc3c(c2cc1-c1cnn(C)n1)n(-c1cn(C)nc1C)c(=O)n3C` [compound 102, 1-(1,3-Dimethyl-1H-pyrazol-4-yl)-7-methoxy-3-methyl-8-(2-methyl-2H-1,2,3-triazol-4-yl)-1,3-dihydroimidazo-[4,5-c]quinolin-2-one]: the IC50 is less than 50 nM.

The record behind these values is patent US10457677B2 (priority 2015, dated 2019).
